This is an account of results in ChEMBL document CHEMBL1287799, “Design, synthesis, and structure-activity relationship study of bicyclic piperazine analogs of indole-3-carboxamides as novel cannabinoid CB1 receptor agonists” (Bioorg Med Chem Lett, 2010).

Active and inactive are the calls of the source. No cut-off for these calls is given here. Where only a bound is given, the exact number is not on record here.

The nature of series [1]: Half life in human liver microsomes. In kind it is ADME, Microsome. (Liver microsomes are vesicles of endoplasmic reticulum, rich in cytochrome P450 enzymes.)
Series [2] can be described thus: Half life in mouse liver microsomes. In kind it is ADME, Microsome.
In series [3] the target is T1, Cannabinoid receptor 1 (Homo sapiens, UniProt P21554).
Description: Agonist activity at human CB1 receptor transfected in CHO cells after 5 hrs by luciferase reporter gene assay
The target of another series is Cytochrome P450 3A4 (Homo sapiens, UniProt P08684). As to the kind of experiment: Inhibition of human CYP3A4. In kind it is ADME.
The next series has as its target Cytochrome P450 2C9 (Homo sapiens, UniProt P11712). Put plainly: Inhibition of human CYP2C9. In kind it is ADME.
A further series deals with Cytochrome P450 2D6 (Homo sapiens, UniProt P10635). As to the kind of experiment: Inhibition of human CYP2D6. In kind it is ADME.
A further series addresses Cannabinoid receptor 2 (Homo sapiens, UniProt P34972). Put plainly: Displacement of [3H]-CP55940 from human CB2 expressed in insect Sf9 membranes. The series is classed as cell membranes. In general terms: Loss of bound radioactivity is the signal in a displacement assay; it reports binding, not function.
The test system of series [4] is Mus musculus. Put plainly: Antinociceptive effect in iv dosed mouse assessed as increase in tail-flick latency period by tail flick test. The series is classed as functional. (In hot-plate and tail-flick tests a longer latency is read as antinociception.)
A short description of series [5]: Genotoxicity in Salmonella Typhimurium up to 100 uM by Ames test. The series is classed as toxicity. The note with it: salmonella enterica subsp. enterica serovar typhimurium.
Series [6] deals with T1, Cannabinoid receptor 1. Put plainly: biochemical.
Series [7] relates to Mus musculus. As to the kind of experiment: Antinociceptive activity against formalin-induced inflammatory pain in iv dosed mouse assessed inhibition of paw licking behavior in both phases of formalin response. The series is classed as functional, organism-based.
The subject of series [8] is Mus musculus. Put plainly: Antinociceptive activity against formalin-induced inflammatory pain in iv dosed mouse assessed inhibition of paw flinching behavior in both phases of formalin response. The series is classed as functional, organism-based.
Series [9] relates to Mus musculus. Put plainly: Antinociceptive activity against formalin-induced inflammatory pain in iv dosed mouse assessed inhibition of paw lifting behavior in both phases of formalin response. The series is classed as functional, organism-based.
Series [10] relates to Mus musculus. Put plainly: Antinociceptive activity against formalin-induced inflammatory pain in iv dosed mouse assessed inhibition of paw biting behavior in both phases of formalin response. The series is classed as functional, organism-based.
Series [11] concerns Mus musculus. As to the kind of experiment: Antinociceptive activity against formalin-induced inflammatory pain in mouse assessed inhibition of paw licking behavior in both phases of formalin response at => 0.3 umol/kg, iv. In kind it is functional, organism-based.
The test system of series [12] is Mus musculus. Put plainly: Antinociceptive activity against formalin-induced inflammatory pain in mouse assessed inhibition of paw flinching behavior in both phases of formalin response at => 0.3 umol/kg, iv. In kind it is functional, organism-based.
Series [13] concerns Mus musculus. As to the kind of experiment: Antinociceptive activity against formalin-induced inflammatory pain in mouse assessed inhibition of paw lifting behavior in both phases of formalin response at => 0.3 umol/kg, iv. In kind it is functional, organism-based.
Series [14] deals with Mus musculus. As to the kind of experiment: Antinociceptive activity against formalin-induced inflammatory pain in mouse assessed inhibition of paw biting behavior in both phases of formalin response => 0.3 umol/kg, iv. In kind it is functional, organism-based.
Series [15] relates to Mus musculus. Put plainly: Antinociceptive activity against formalin-induced inflammatory pain in iv dosed mouse assessed inhibition of paw flinching behavior in both phases of formalin response in presence of CB1 antagonist SR-141716A pretreated before compound challenge. In kind it is functional, organism-based.
Series [16] concerns Mus musculus. Put plainly: Antinociceptive activity against formalin-induced inflammatory pain in iv dosed mouse assessed inhibition of paw licking behavior in both phases of formalin response in presence of CB1 antagonist SR-141716A pretreated before compound challenge. In kind it is functional, organism-based.
The test system of series [17] is Mus musculus. Put plainly: Antinociceptive activity against formalin-induced inflammatory pain in iv dosed mouse assessed inhibition of paw lifting behavior in both phases of formalin response in presence of CB1 antagonist SR-141716A pretreated before compound challenge. In kind it is functional, organism-based.
Series [18] relates to Mus musculus. As to the kind of experiment: Antinociceptive activity against formalin-induced inflammatory pain in iv dosed mouse assessed inhibition of paw biting behavior in both phases of formalin response in presence of CB1 antagonist SR-141716A pretreated before compound challenge. In kind it is functional, organism-based.

T1 sequence (P21554 whole entry): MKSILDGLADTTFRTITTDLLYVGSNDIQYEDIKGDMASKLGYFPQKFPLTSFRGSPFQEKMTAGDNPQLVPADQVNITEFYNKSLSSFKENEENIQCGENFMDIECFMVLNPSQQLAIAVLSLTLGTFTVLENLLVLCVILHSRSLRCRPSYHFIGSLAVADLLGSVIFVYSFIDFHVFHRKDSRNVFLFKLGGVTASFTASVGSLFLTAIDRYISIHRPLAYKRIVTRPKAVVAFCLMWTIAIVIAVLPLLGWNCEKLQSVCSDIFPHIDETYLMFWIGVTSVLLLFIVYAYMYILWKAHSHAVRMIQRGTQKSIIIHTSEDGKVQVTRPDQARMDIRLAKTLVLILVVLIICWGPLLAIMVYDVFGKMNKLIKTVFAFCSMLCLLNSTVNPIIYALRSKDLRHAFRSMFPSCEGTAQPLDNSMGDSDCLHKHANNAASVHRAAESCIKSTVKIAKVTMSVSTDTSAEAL
Cannabinoid receptor 2, sequence (P34972 whole entry): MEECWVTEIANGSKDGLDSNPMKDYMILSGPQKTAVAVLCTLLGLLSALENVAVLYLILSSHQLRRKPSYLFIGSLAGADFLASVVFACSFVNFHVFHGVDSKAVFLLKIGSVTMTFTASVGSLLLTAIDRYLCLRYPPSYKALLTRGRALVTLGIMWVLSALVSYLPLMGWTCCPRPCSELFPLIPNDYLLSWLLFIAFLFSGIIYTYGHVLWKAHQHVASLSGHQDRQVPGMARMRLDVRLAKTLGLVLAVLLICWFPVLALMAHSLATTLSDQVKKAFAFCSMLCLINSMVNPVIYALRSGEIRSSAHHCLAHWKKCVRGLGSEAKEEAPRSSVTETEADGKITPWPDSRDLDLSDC
Cytochrome P450 2C9, sequence (P11712 whole entry): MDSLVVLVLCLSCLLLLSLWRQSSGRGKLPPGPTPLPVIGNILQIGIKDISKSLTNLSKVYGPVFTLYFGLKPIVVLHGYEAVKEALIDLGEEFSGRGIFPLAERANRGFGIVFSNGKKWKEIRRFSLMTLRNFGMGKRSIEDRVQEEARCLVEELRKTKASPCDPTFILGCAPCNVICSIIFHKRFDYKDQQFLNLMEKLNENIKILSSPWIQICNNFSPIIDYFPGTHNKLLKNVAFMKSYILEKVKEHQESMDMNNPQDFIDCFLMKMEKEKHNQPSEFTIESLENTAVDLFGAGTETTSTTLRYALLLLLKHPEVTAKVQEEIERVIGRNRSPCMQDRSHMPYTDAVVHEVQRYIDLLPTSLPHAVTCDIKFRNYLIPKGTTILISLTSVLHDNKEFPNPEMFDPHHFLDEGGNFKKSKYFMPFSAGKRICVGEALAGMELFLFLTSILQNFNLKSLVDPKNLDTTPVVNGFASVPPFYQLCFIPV
Cytochrome P450 3A4, sequence (P08684 whole entry): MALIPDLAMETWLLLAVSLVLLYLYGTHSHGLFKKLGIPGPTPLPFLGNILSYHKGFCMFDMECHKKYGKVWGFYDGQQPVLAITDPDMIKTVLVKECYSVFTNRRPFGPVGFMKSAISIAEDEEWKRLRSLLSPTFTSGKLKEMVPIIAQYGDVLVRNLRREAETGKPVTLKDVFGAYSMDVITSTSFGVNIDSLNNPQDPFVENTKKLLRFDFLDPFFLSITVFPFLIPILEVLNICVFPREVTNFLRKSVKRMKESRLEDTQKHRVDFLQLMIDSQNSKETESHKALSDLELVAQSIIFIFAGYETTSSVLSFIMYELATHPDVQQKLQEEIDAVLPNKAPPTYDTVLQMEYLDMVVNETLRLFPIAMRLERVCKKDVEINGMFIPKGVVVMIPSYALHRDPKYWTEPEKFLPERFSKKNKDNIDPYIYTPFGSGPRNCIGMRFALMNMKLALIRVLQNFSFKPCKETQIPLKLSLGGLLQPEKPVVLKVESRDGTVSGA
Cytochrome P450 2D6, sequence (P10635 whole entry): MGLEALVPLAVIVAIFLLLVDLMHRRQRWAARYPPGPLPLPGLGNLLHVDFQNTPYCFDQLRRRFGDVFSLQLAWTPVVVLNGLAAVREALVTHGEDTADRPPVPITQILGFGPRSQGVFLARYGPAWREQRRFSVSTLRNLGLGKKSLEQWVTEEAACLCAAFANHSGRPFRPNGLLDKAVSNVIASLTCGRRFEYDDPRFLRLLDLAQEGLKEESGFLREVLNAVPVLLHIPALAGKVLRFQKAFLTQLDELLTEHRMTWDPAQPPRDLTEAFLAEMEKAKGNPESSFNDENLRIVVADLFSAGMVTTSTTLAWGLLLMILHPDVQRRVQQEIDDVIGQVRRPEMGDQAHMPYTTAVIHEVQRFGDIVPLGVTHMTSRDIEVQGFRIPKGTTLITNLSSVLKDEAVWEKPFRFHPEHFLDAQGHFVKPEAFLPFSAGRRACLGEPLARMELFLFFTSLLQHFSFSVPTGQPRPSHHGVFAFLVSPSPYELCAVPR

As usually defined, the half-life is how long it takes for the measured level to halve. Read a low half-life as rapid decline. Broadly, the EC50 is the concentration that produces a half-maximal response. High values mean weaker potency, low ones greater potency. Consider `COc1cccc2c(C(=O)N3C[C@@H]4CCCN4C[C@@H]3C)cn(CC3CCCCC3)c12`, for which the half-life in [1] and in series [2] was less than 5 min each time. Further, the EC50 at Cannabinoid receptor 1 [3] is 100 nM.
The compound `O=C(c1cn2c3c(cccc13)OC[C@@H]2C1CCCCC1)N1CCN2CCCC[C@H]2C1` gave a concentration giving a half-maximal response (EC50) on Cannabinoid receptor 1 [3] of 2000 nM. In other words, the single-digit micromolar range.
In general, IC50 refers to the concentration that gives 50% inhibition. The low end stands for greater potency in that assay, the high end for weaker potency in that assay. One may read the Ki as the equilibrium dissociation constant of an inhibitor or competing ligand from its target. A high value points to lower affinity. One may read the ED50 as the dose at which the effect has come halfway, by size or by number of responders. For `COc1cccc2c(C(=O)N3CCN4CCCC[C@H]4C3)cn(CC3CCCCC3)c12` [listing 1 of 2 here], the IC50 against Cytochrome P450 3A4 was found to be 6000 nM; against Cytochrome P450 2C9, 12000 nM; against Cytochrome P450 2D6, 13000 nM. For the same compound, the results for the Ki on Cannabinoid receptor 2 and on Cannabinoid receptor 1 [6] were 3.98 nM and 2.51 nM, respectively. Also, the ED50 with Mus musculus [4] was 0.00058 µmol/kg. Also, the Activity entry in series [5] was “Non-toxic”.
Turning to `COc1cccc2c(C(=O)N3CCN4CCCC[C@@H]4C3)cn(CC3CCCCC3)c12`, the half-life in series [1] and in series [2] was less than 5 min in each case. In addition, a half-maximal response at Cannabinoid receptor 1 [3] (EC50) required 100 nM.
As for `COc1cccc2c(C(=O)N3CCN4CCC[C@H]4C3)cn(CC3CCCCC3)c12.Cl`, the half-life in series [1] and in series [2] was less than 5 min each time. This compound gave an EC50 on Cannabinoid receptor 1 [3] of 20 nM.
In the case of `COc1cccc2c(C(=O)N3C[C@H]4CCCN4C[C@H]3CC(C)C)cn(CC3CCCCC3)c12`, the half-life in series [1] and in series [2] was less than 5 min in each case. In addition, the EC50 at Cannabinoid receptor 1 [3] is 316 nM.
As to `COc1cccc2c(C(=O)N3CCN4CCCC[C@H]4C3)cn(CC3CCCCC3)c12.Cl`, the half-life in series [1] and in series [2] was less than 5 min throughout.
Regarding `COc1cccc2c(C(=O)N3C[C@H]4CCCN4C[C@@H]3C)cn(CC3CCCCC3)c12.Cl`, the half-life in series [1] and in [2] was less than 5 min in each case. In addition, the EC50 on Cannabinoid receptor 1 [3] was 501 nM.
Consider `O=C(c1cn2c3c(cccc13)OC[C@H]2C1CCCCC1)N1CCN2CCCC[C@H]2C1`, for which the Ki on Cannabinoid receptor 2 is 0.398 nM; on Cannabinoid receptor 1 [6] it was 1.58 nM. Moreover, the ED50 in the series on Mus musculus [4] came to 0.00042 µmol/kg.
`Cc1c(C(=O)c2cccc3ccccc23)c2cccc3c2n1[C@H](CN1CCOCC1)CO3` [WIN-552122]: the ED50 in the series with Mus musculus [4] was 0.0017 µmol/kg.
On to `COc1cccc2c(C(=O)N3C[C@H]4CCCN4C[C@H]3C)cn(CC3CCCCC3)c12.Cl`, for which the half-life in [1] and in [2] was less than 5 min each time. This compound showed an EC50 at Cannabinoid receptor 1 [3] of 63.1 nM.
`COc1cccc2c(C(=O)N3C[C@@H]4CCCN4CC3(C)C)cn(CC3CCCCC3)c12`: the half-life in series [1] and in [2] was less than 5 min in each case. The compound further gave an EC50 at Cannabinoid receptor 1 [3] of 100 nM.
Regarding `COc1cccc2c(C(=O)N3CCN4CCC[C@@]4(C)C3)cn(CC3CCCCC3)c12.Cl`, the half-life in series [1] and in series [2] was less than 5 min each time. On Cannabinoid receptor 1 [3], the EC50 was 1260 nM.
In the case of `CCCCCCC(C)(C)c1ccc([C@@H]2C[C@H](O)CC[C@H]2CCCO)c(O)c1` [CP-55940], the ED50 in the series with Mus musculus [4] amounted to 0.00011 µmol/kg.
In the case of `COc1cccc2c(C(=O)N3CCN4CCCC[C@H]4C3)cn(CC3CCCCC3)c12` [listing 2 of 2 here], the Activity result with Mus musculus [7], in the series on Mus musculus [8], with Mus musculus [9] and with Mus musculus [10] was “Dose-dependent effect” each time. In addition, the outcome with Mus musculus [11], in the series on Mus musculus [12], with Mus musculus [13] and in the series on Mus musculus [14] was Active. For the same compound, the result with Mus musculus [15], with Mus musculus [16], with Mus musculus [17] and with Mus musculus [18] was inactive.
Turning to `COc1cccc2c(C(=O)N3C[C@]4(C)CSCN4C[C@@H]3C)cn(CC3CCCCC3)c12.Cl`, the half-life in series [1] and in [2] was less than 5 min throughout. On Cannabinoid receptor 1 [3], this compound had an EC50 of 31.6 nM.
As for `COc1cccc2c(C(=O)N3CCN4CCC[C@@H]4C3)cn(CC3CCCCC3)c12`, the half-life in series [1] and in [2] was less than 5 min in each case. This compound gave an EC50 on Cannabinoid receptor 1 [3] of 63.1 nM.
As for `COc1cccc2c(C(=O)N3C[C@@H]4CCCN4C[C@H]3C)cn(CC3CCCCC3)c12.Cl`, the half-life in [1] and in series [2] was less than 5 min each time. Also, on Cannabinoid receptor 1 [3], the EC50 was 1000 nM.
Take `COc1cccc2c(C(=O)N3C[C@@H]4CCCN4C[C@@H]3CC(C)C)cn(CC3CCCCC3)c12`: the half-life in series [1] and in [2] was less than 5 min throughout. For the same compound, the EC50 at Cannabinoid receptor 1 [3] was greater than 10000 nM.
In the case of `COc1cccc2c(C(=O)N3C[C@H]4CCCN4CC3(C)C)cn(CC3CCCCC3)c12`, the half-life in series [1] and in series [2] was less than 5 min in each case. This compound had an EC50 on Cannabinoid receptor 1 [3] of 631 nM.
